{
  "source": "patent US20100266541A1",
  "about": "“METHODS AND AGENTS FOR […] IMMUNE RESPONSE” (priority 2006, published 2010)",
  "key": {"LC3-II": {"test_system": "LC3-II", "assay": "LC3-II accumulation by anti-LC3 Western blotting", "type": "cell-based, human", "conditions": "for LC3-II accumulation (Western blot, words): 10 hours; for LC3-II accumulation, density quantification of Western blots: 10 hours of CQ-treatment; for effect on LC3-II levels and hence macroautophagy: 293T, HaCat and MDAMC, 24 h, 1000 U/ml", "procedure": "Cells were lysed in ice cold lysis buffer (50 mM Tris-HCl pH 8.0, 140 mM NaCl, 1 mM DTT, 1.5 mM MgCl2, 0.5% NP-40 with Complete protease inhibitor cocktail, Roche, Indianapolis, Ind.) for 5 mim on ice (about 10^6 cells/100 μl). Whole cells and cell debris were pelleted by low speed centrifugation (400 g, 3 mil) and cleared supernatants were transferred to a new tube. Protein concentration was determined by BCA protein assay (Pierce, Rockford, Ill.). […] Primary antibodies were visualized with HRP-conjugated goat anti-rabbit IgG (Biorad, Hercules; CA) and the ECLplus detection system (Amersham Biosciences, UK).\nThis also allowed for extension of the analysis from epithelial cell lines to MHC class II-positive cell types that are more difficult to transfect, such as B cell lines and primary monocytes/dendritic cells. The fact that autophagosome-associated LC3 (called LC3-II) and free cytosolic LC3 (called LC3-I) can be distinguished by their apparent molecular weights in SDS-PAGE gel electrophoresis (16 and 18 lcD, respectively) was used, since it can be quantified separately in anti-LC3 Western blots."}, "MDAMC cells": {"test_system": "MDAMC cells", "assay": "Colocalization of GFP-LC3 with compartment markers by confocal microscopy in MDAMC cells", "type": "cell-based, human"}, "[1]": {"test_system": "GFP-LC3 labeled autophagosomes", "type": "cell-based, human", "design": "accumulation of GFP-LC3-labeled autophagosomes: dose or concentration left out as unconfirmed"}, "immature DCs": {"test_system": "immature DCs", "conditions": "10 hr of CQ treatment"}, "[2]": {"test_system": "MDAMC cells stably transfected with GFP-LC3", "conditions": "CQ-treated versus untreated cells", "description": "MDAMC cells stably transfected with GFP-LC3 were fixed for 1 h at RT with 4% paraformaldehyde (PFA, Electron Microscopy Sciences) in 0.25 M Hepes, pH 7.4, followed by overnight fixation at 4° C. in 8% PFA/Hepes. Cells were washed 1× in PBS, quenched with 0.1 M NH4Cl in PBS for 10 min, scraped into 1% gelatin in PBS and then embedded in 5% gelatin in PBS. Small pieces of the gelatin pellets were infiltrated overnight at 4° C. with 2.3 M sucrose in PBS, mounted onto cryospecimen pins and frozen in liquid nitrogen. […] After quenching with 0.1 M NH4Cl in PBS for 10 min, the grids were incubated for 20 min in a solution of 1% fish skin gelatin (FSG, Sigma-Aldrich) in PBS. They were then labeled with rabbit anti-HLA-DR antiserum C6861 (a gift from Peter Cresswell, Yale University, New Haven, Conn.) in PBS-FSH for 30 min at RT, washed 4× in PBS and then incubated with 10 or 15 nm protein A-gold (purchased from the Department of Cell Biology, University of Utrecht, Netherlands). After 4 more washes in PBS, grids were fixed in 1% glutaraldehyde in PBS for 5 min at RT, washed 5× in PBS and again quenched with 0.1 M NH4Cl in PBS for 10 min. The same labeling procedure was repeated with a rabbit anti-GFP antibody (Invitrogen-Molecular Probes, Carlsbad, Calif.) and after final fixation in 1% glutaraldehyde, grids were washed 8× in HPLC-grade water."}, "atg12": {"test_system": "atg12", "assay": "Knockdown of atg12 by siRNA in MDAMC cells", "type": "cell-based, human", "text": "The following 21-nt siRNA oligos were used:\nAtg12 antisense: 5′-[…]dT (SEQ ID NO:6; nt. 687-705 of NM_004707). As a control, lamin A/Cspecific siRNA from Dharmacon (Lamin sense: 5′-CUGGACUUCCAGAAGAACAdTdT (SEQ ID NO:7); Lamin antisense: 5′-UGUUCUUCUGGAAGUCCAGdTdT (SEQ ID NO:8) or firefly luciferase-specific siRNA (GL2 sense: 50-CGUACGCGGAAUACUUCGAdTdT; SEQ ID NO:9; GL2 antisense: 5′-UCGAAGUAUUCCGCGUACGdTdT; SEQ ID NO:10) was used. siRNA duplexes were delivered by transfection with lipofectamine 2000 (Invitrogen) at 30 pmol siRNA+[…] lipofectamine/well in a 24-well format, and effect of knockdown was analyzed after 2-3 days."}, "[3]": {"conditions": "MDAMC cells, CQ 50 μM, E64 28 μM, Leupeptin 40 μM and Pepstatin A 15 μM together"}},
  "note": "Square brackets hold non-standard residues; d marks the D form. Peptide text beside a SMILES is read from it. * marks the point of attachment. Sta = CC(C)C[C@H](N)[C@@H](O)CC(=O)O; Isovaleryl = CC(C)CC(=O)*",
  "data": [
    {"compound": "CC(C)C[C@H](NC(=O)[C@H]1O[C@@H]1C(=O)O)C(=O)NCCCCN=C(N)N", "note": "[E64]", "values": [
      {"measurement": "LC3-II accumulation (Western blot, words)", "setting": "LC3-II; [3]", "result": "strong accumulation of LC3-II"}
    ]},
    {"compound": "CC(=O)N[C@@H](CC(C)C)C(=O)N[C@@H](CC(C)C)C(=O)N[C@H](C=O)CCCNC(=N)N", "note": "[Leupeptin]", "values": [
      {"measurement": "LC3-II accumulation (Western blot, words)", "setting": "LC3-II; [3]", "result": "strong accumulation of LC3-II"}
    ]},
    {"compound": "CC(C)CC(=O)N[C@H](C(=O)N[C@H](C(=O)N[C@@H](CC(C)C)[C@@H](O)CC(=O)N[C@@H](C)C(=O)N[C@@H](CC(C)C)[C@@H](O)CC(=O)O)C(C)C)C(C)C", "note": "[Pepstatin A] (Isovaleryl-VV[Sta]A[Sta]-OH)", "values": [
      {"measurement": "LC3-II accumulation (Western blot, words)", "setting": "LC3-II; [3]", "result": "strong accumulation of LC3-II"}
    ]},
    {"compound": "CCN(CC)CCCC(C)Nc1ccnc2cc(Cl)ccc12", "note": "(stereo not drawn) [chloroquine]", "values": [
      {"measurement": "LC3-II accumulation, density quantification of Western blots", "setting": "LC3-II; 293 cells", "result": 30, "unit": "fold"},
      {"measurement": "onset of increase of cellular LC3-II levels", "setting": "LC3-II; HaCat cell line, time course", "result": "already increased 1 hour after CQ-treatment"},
      {"measurement": "LC3-II accumulation, density quantification of Western blots", "setting": "LC3-II; HaCat cells", "result": 5, "unit": "fold"},
      {"measurement": "LC3-II accumulation, density quantification of Western blots", "setting": "LC3-II; MDAMC cells", "result": 5, "unit": "fold"},
      {"measurement": "LC3-II accumulation (Western blot, words)", "setting": "LC3-II; [3]", "result": "strong accumulation of LC3-II"},
      {"measurement": "LC3-II accumulation (Western blot, words)", "setting": "LC3-II; epithelial and B cell lines, CD14+ monocytes, dendritic cells", "result": "strongly accumulated"},
      {"measurement": "HLA-DM colocalization with GFP-LC3, LSM510 histogram tool", "setting": "MDAMC cells; IFNγ-treated MDAMC, after chloroquine treatment (38 untreated)", "result": 45, "unit": "%"},
      {"measurement": "MHC class II colocalization with GFP-LC3, LSM510 histogram tool", "setting": "MDAMC cells; IFNγ-treated MDAMC, after chloroquine treatment (40 untreated)", "result": 44, "unit": "%"},
      {"measurement": "HLA-DM+ vesicles colocalized with GFP-LC3, LSM 510 profile tool", "setting": "MDAMC cells; IFNγ-treated MDAMC, after chloroquine treatment (52 untreated)", "result": 71, "unit": "%"},
      {"measurement": "MHC class II+ compartments colocalized with GFP-LC3, LSM 510 profile tool", "setting": "MDAMC cells; IFNγ-treated MDAMC, after chloroquine treatment (58 untreated)", "result": 86, "unit": "%"},
      {"measurement": "EEA1 colocalization with GFP-LC3, histogram analysis", "setting": "MDAMC cells; MDAMC, after chloroquine treatment (7% untreated)", "result": 21, "unit": "%"},
      {"measurement": "EEA1 colocalization with GFP-LC3, profile analysis", "setting": "MDAMC cells; MDAMC, after chloroquine treatment (9% untreated)", "result": 26, "unit": "%"},
      {"measurement": "accumulation of GFP-LC3-labeled autophagosomes", "setting": "[1]; B-LCL, immature and mature DCs, chloroquine for 10 hr", "result": "strongly accumulated"},
      {"measurement": "accumulation of GFP-LC3 in cytosolic vesicles", "setting": "[1]; HaCat, HeLa, MDAMC, 293 cell lines, 10 hours of CQ-treatment", "result": "strongly accumulated in cytosolic vesicles"},
      {"measurement": "MHC class II-labeled compartments positive for GFP-LC3", "setting": "immature DCs", "result": "41% (±7%)"},
      {"measurement": "frequency of GFP-LC3/MHC class II double-labeled multivesicular compartments", "setting": "[2]", "result": "found much more frequently"}
    ]},
    {"compound": "ATG12 siRNA: 21-nt siRNA duplex against atg12, SEQ ID NO: 5 and 6 (nt. 687-705 of NM_004707) (chain 1 UCAACUUGCUACUACAUGAUDT; chain 2 UCAUGUAGUAGCAAGUUGAUDT; chemistry not fully specified; listed as Homo sapiens)", "values": [
      {"measurement": "accumulation of GFP-LC3+ vesicles upon CQ treatment after knockdown", "setting": "atg12; MDAMC cells stably expressing GFP-LC3, 2 days after transfection, CQ 6 hr", "result": "completely abrogates accumulation of these vesicles"},
      {"measurement": "colocalization of MP1-LC3-containing vesicles with MHC class II compartments after knockdown", "setting": "atg12; MDAMC cells stably expressing MP1-LC3, IFNγ 200 U/ml, 50 μM chloroquine last 6 hours", "result": "completely abrogated"}
    ]},
    {"compound": "IFN-α", "values": [
      {"measurement": "effect on LC3-II levels and hence macroautophagy", "setting": "LC3-II", "result": "not affected"}
    ]},
    {"compound": "IFNγ: Recombinant human IFNγ", "values": [
      {"measurement": "effect on LC3-II levels and hence macroautophagy", "setting": "LC3-II", "result": "not affected"},
      {"measurement": "formation of MHC class II positive compartments", "setting": "MDAMC cells; human epithelial cell lines, IFNγ treatment", "result": "induced the formation of MHC class II positive compartments"}
    ]}
  ]
}
